In ChEMBL document CHEMBL1201862, “PubChem BioAssay data set” (2004):
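The compound was tested at five concentrations on cells cultured in 96-well plates, with a 48-hour exposure period. GI50 = concentration required for 50% inhibition of growth.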 The source made the active and inactive calls. Rule as the data show it: active = GI50 up to about 1.1 µM and inactive = higher.

Assays:
Experiment in all cases: NCI-60 cell line screen, 48 h
HCC 2998 = tested on: HCC 2998
NCI/ADR-RES = tested on: NCI/ADR-RES
IGROV-1 = tested on: IGROV-1
COLO 205 = tested on: COLO 205
SW-620 = tested on: SW-620
UO-31 = tested on: UO-31
OVCAR-8 = tested on: OVCAR-8
SR = tested on: SR
HT-29 = tested on: HT-29
SK-MEL-2 = tested on: SK-MEL-2
SNB-75 = tested on: SNB-75
NCI-H460 = tested on: NCI-H460
UACC-257 = tested on: UACC-257
DU-145 = tested on: DU-145
SK-MEL-28 = tested on: SK-MEL-28
T47D = tested on: T47D
NCI-H522 = tested on: NCI-H522
HCT-116 = tested on: HCT-116
SN12C = tested on: SN12C
SF-539 = tested on: SF-539

Row | Compound | GI50 (HCC 2998) | GI50 (NCI/ADR-RES) | GI50 (IGROV-1) | GI50 (COLO 205) | GI50 (SW-620) | GI50 (UO-31) | GI50 (OVCAR-8) | GI50 (SR) | GI50 (HT-29) | GI50 (SK-MEL-2) | GI50 (SNB-75) | GI50 (NCI-H460) | GI50 (UACC-257) | GI50 (DU-145) | GI50 (SK-MEL-28) | GI50 (T47D) | GI50 (NCI-H522) | GI50 (HCT-116) | GI50 (SN12C) | GI50 (SF-539)
1 | O=C(CC(=O)Nc1ccccc1)NNC(c1cc(/N=N/c2ccc(Br)cc2)ccc1O)P(O)O (stereo not given) | 5.46 µM (inactive) | 1.06 µM (active) | 9.62 µM (inactive) | 4.49 µM (inactive) | 1.55 µM (inactive) | 2.52 µM (inactive) | 0.759 µM (active) | 0.494 µM (active) | > 10 µM (inactive) | > 10 µM (inactive) | 2.32 µM (inactive) | 0.447 µM (active) | 4.89 µM (inactive) | 3.48 µM (inactive) | 4.45 µM (inactive) | 3.31 µM (inactive) | 3.48 µM (inactive) | 0.504 µM (active) | 4.04 µM (inactive) | 2.12 µM (inactive)
2 | O=c1c(F)cn(Cc2c(Cl)cccc2Cl)c(=O)n1Cc1c(Cl)cccc1Cl | > 31.6 µM (inactive) | > 31.6 µM (inactive) | > 31.6 µM (inactive) | 19.9 µM (inactive) | > 31.6 µM (inactive) | 18.1 µM (inactive) | > 31.6 µM (inactive) | 19.4 µM (inactive) | 18.3 µM (inactive) | > 31.6 µM (inactive) | 16.5 µM (inactive) | > 31.6 µM (inactive) | > 31.6 µM (inactive) | > 100 µM (inactive) | > 31.6 µM (inactive) | 20.7 µM (inactive) | 16 µM (inactive) | 23.8 µM (inactive) | > 31.6 µM (inactive) | > 31.6 µM (inactive)
3 | [N-]=[N+]=Nc1c(Cl)c(Cl)nc2ccccc12 | > 100 µM (inactive) | > 100 µM (inactive) | 77.6 µM (inactive) | > 100 µM (inactive) | 93.8 µM (inactive) | > 100 µM (inactive) | > 100 µM (inactive) | > 100 µM (inactive) | > 100 µM (inactive) | > 100 µM (inactive) | 44.8 µM (inactive) | > 100 µM (inactive) | > 100 µM (inactive) | 72.1 µM (inactive) | > 100 µM (inactive) | 68.1 µM (inactive) | 71.3 µM (inactive) | > 100 µM (inactive) | 76 µM (inactive) | > 100 µM (inactive)
4 | Cc1cc(N(CCC#N)CCC#N)ccc1/C=C(\NC(=O)/C=C/c1ccccc1)C(=O)NN | > 100 µM (inactive) | > 100 µM (inactive) | > 75.3 µM (inactive) | > 100 µM (inactive) | > 100 µM (inactive) | > 100 µM (inactive) | > 54.1 µM (inactive) | > 100 µM (inactive) | > 100 µM (inactive) | > 61.7 µM (inactive) | 24.7 µM (inactive) | > 66.8 µM (inactive) | > 100 µM (inactive) | > 100 µM (inactive) | > 100 µM (inactive) | 55 µM (inactive) | > 56.1 µM (inactive) | 99.1 µM (inactive) | > 100 µM (inactive) | 39.1 µM (inactive)
5 | CNc1cccnc1/C=N/N=C(/N)S | 1.82 µM (inactive) | 3.01 µM (inactive) | > 5.55 µM (inactive) | 2.13 µM (inactive) | 3.05 µM (inactive) | 1.78 µM (inactive) | 0.675 µM (active) | > 2.84 µM (inactive) | 2.45 µM (inactive) | 9.89 µM (inactive) | 0.863 µM (active) | 2.46 µM (inactive) | > 10 µM (inactive) | 0.685 µM (active) | 7.74 µM (inactive) | 2.7 µM (inactive) | 2.47 µM (inactive) | 1.22 µM (inactive) | 1.33 µM (inactive) | 0.279 µM (active)
